# Results as given in patent US11084795B2, “CFTR regulators and methods of use thereof” (The Regents of the University of California, priority 2015, dated 2021).
# Where two headings read alike, the source gives them in different places. Where a SMILES comes first, the peptide text is derived from it. Bridges are numbered along the chain shown (N, C = ends).
# Columns and labels:
# [1] = system: loperamide-treated mice; test: Loperamide-induced mouse model of constipation
# [2] = system: chronic constipation / IBS-C patients; details: linaclotide: chronic constipation; lubiprostone: IBS-C; cited from earlier work
# [3] = system: tear fluid secretion; type: in vivo, mouse
# [4] = biological target: T1, human wildtype CFTR (Homo sapiens, UniProt P13569); test: Short-circuit current (Isc) in FRT cells expressing human wild-type CFTR
# T1 sequence (P13569 whole entry): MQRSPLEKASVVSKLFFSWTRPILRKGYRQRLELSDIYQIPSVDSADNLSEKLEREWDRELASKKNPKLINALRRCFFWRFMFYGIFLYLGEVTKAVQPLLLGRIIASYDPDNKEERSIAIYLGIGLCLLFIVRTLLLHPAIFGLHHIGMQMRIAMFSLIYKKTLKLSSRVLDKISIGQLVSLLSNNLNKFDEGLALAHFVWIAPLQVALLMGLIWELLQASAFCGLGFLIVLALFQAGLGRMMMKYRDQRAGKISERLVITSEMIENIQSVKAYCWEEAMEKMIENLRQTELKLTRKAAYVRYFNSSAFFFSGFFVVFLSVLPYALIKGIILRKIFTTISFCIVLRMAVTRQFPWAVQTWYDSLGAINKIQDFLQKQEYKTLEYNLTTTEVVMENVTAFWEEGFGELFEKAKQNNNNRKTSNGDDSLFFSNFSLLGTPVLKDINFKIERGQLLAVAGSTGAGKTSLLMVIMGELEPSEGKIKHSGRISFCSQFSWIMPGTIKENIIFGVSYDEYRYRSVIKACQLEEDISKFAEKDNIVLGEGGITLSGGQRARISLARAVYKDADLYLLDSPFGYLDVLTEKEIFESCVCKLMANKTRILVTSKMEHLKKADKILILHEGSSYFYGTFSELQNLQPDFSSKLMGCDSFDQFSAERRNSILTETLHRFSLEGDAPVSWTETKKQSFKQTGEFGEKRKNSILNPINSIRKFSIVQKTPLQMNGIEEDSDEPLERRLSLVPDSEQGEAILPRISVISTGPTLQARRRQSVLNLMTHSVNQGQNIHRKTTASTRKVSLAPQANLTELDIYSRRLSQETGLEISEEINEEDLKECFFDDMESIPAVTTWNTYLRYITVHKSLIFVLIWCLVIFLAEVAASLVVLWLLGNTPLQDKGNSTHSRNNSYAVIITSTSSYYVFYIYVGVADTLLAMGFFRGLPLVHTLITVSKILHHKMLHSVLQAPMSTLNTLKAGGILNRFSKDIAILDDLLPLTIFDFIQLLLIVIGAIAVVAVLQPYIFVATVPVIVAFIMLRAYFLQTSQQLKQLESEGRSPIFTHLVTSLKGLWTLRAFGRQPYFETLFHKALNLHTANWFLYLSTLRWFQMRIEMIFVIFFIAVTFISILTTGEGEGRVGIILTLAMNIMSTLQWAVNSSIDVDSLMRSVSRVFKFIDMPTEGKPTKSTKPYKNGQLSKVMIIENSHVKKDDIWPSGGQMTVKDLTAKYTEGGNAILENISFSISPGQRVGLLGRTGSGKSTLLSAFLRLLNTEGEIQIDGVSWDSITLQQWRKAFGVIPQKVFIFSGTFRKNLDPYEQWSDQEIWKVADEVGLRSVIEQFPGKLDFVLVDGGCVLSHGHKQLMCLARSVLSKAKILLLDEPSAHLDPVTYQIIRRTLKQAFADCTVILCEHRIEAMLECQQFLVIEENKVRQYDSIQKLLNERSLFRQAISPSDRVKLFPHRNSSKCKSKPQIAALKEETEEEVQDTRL
# [5] = system: CFTR at the ocular surface; test: Ocular surface potential difference (PD) in living mice; type: in vivo, mouse; details: wild-type mice, 1-10 μM
# Method: Open-circuit transepithelial PD were measured continuously in anesthetized mice in response to serial perfusions of different solutions over the ocular surface, as described (21). Mice were anesthetized with Avertin (2,2,2-tribromoethanol, 125 mg/kg intraperitoneal, Sigma-Aldrich, St. Louis, Mo., USA), and core temperature was maintained at 37° C. using a heating pad. Eyes were oriented with the cornea and conjunctiva facing upward and exposed by retracting the eyelid with cross-action forceps. Solutions were isosmolar (320±10 mOsM; compositions provided in ref. 21) and contained 10μ[…] indomethacin to prevent CFTR activation by prostaglandins. The ocular surface was perfused at 6 mL/min through plastic tubing using a multireservoir gravity pinch-valve system (ALA Scientific, Westbury, N.Y., USA) and variable-flow peristaltic pump (medium flow model; Fisher Scientific, Fair Lawn, N.J., USA). A probe catheter was fixed 1 mm above the cornea using a micropositioner and a suction cannula was positioned 3 mm from the orbit. The measuring electrode was in contact to the perfusion catheter and connected to a high-impedance voltmeter (IsoMilivolt Meter; WPI). The reference electrode was grounded via a winged 21-gauge needle filled with isosmolar saline, and inserted subcutaneously in the abdomen. Measuring and reference electrodes consisted of Ag/AgCl with 3 M KCl agar bridges.
# An open-circuit potential difference (PD) method developed in our lab was used to evaluate compound activity at the ocular surface in vivo, as depicted in FIG. 3A (21). Cl^− channel function was quantified by measuring PD during continuous perfusion of the ocular surface with a series of solutions that imposed a transepithelial Cl^− gradient and contained various channel agonists and/or inhibitors. The ocular surface was first perfused with isosmolar saline to record the baseline PD. Amiloride was then added to the perfusate, followed by exchange to a low Cl^− solution in which Cl^− with an impermeant anion, gluconate. These maneuvers allow for direct visualization of CFTR activation in response to addition of candidate CFTR activators.
# Ocular surface potential difference measurements. Open-circuit transepithelial PD were measured continuously in anesthetized mice in response to serial perfusions of different solutions over the ocular surface, as described (21). Mice were anesthetized with Avertin (2,2,2-tribromoethanol, 125 mg/kg intraperitoneal, Sigma-Aldrich, St. Louis, Mo., USA), and core temperature was maintained at 37° C. using a heating pad. Eyes were oriented with the cornea and conjunctiva facing upward and exposed by retracting the eyelid with cross-action forceps. […]
# [6] = biological target: T1, human wildtype CFTR; test: Fluorescence plate reader assay of iodide influx in FRT cells co-expressing CFTR and YFP halide sensor
# [7] = wild-type mice, B074 100 μM, J027 and K089 50 μM, VX-770 10 μM, cholera toxin 0.1 μg/mL, forskolin 20 μM, IBMX 250 μM
# [8] = read-out: EC50, variation in the 3-aryl ring, plate reader assay
compound,measurement,setting,value
"C[C@@H]1NC(=O)[C@@H]2CCCN2C(=O)[C@H](CC(N)=O)NC(=O)[C@@H]2CSSC[C@H](N)C(=O)N[C@H]3CSSC[C@H](NC1=O)C(=O)N[C@@H]([C@@H](C)O)C(=O)NCC(=O)N[C@H](C(=O)N[C@@H](Cc1ccc(O)cc1)C(=O)O)CSSC[C@H](NC(=O)[C@H](Cc1ccc(O)cc1)NC(=O)[C@H](CCC(=O)O)NC3=O)C(=O)N2 [linaclotide, reference compound] (H-CCEYCCNPACTGCY-OH; disulfide 1-6, 2-10, 5-13)",stool output normalization as % of the maximal CFTRact-J027 response,"[1]; oral 0.5 mg/kg, loperamide-treated mice",35%
same,patients in whom the drug was effective,[2],~20%
"CC(C)Cn1c(=O)n(C)c(=O)c2[nH]cnc21 [IBMX, 3-isobutyl-1-methylxanthine, reference compound]",tear fluid secretion after single topical dose,[3]; [7],"substantially increased basal tear secretion at 30 min, but these effects were transient and undetectable after 2 hours"
"CC(C)(C)c1cc(C(C)(C)C)c(NC(=O)c2c[nH]c3ccccc3c2=O)cc1O [VX-770, reference compound]",activity against wild-type CFTR,[4],relatively weak activity
same,maximal CFTR activation,[4]; wild-type CFTR,15%
same,change in ocular surface PD,[5],minimal changes in ocular surface PD
same,tear fluid secretion after single topical dose,[3]; [7],little tear secretion
cholera toxin [reference compound],tear fluid secretion after single topical dose,"[3]; mouse, in vivo","substantially increased basal tear secretion at 30 min, but these effects were transient and undetectable after 2 hours"
"Nc1ccc([N+](=O)[O-])cc1-c1nc2cc(Cl)ccc2n(Cc2ccccc2)c1=O [CFTRact-J135, 3-(2-Amino-5-nitrophenyl)-1-benzyl-6-chloroquinoxalin-2(1H)-one]",EC50,"[4]; EC50 for CFTR activation, FRT cells, wild-type CFTR, short-circuit current",~300 nM
same,extent of CFTR activation (Isc),[4]; forskolin produced little or no further increase in current,fully activated CFTR
same,EC50,[6],110 nM
CCCCC(F)(F)[C@@]1(O)CC[C@H]2[C@@H](CC(=O)[C@@H]2CCCCCCC(=O)O)O1 [lubiprostone],patients in whom the drug was effective,[2],~13%
"Cc1ccc2c(c1)nc(-c1c(N)cccc1Br)c(=O)n2Cc1ccccc1 [CFTRact-J139, 3-(2-Amino-6-bromophenyl)-1-benzyl-6-methylquinoxalin-2(1H)-one]",EC50,[6],650 nM
CC(=O)Nc1ccccc1-c1nc2ccccc2n(CCc2ccccc2)c1=O [CFTRact-J061],EC50,[6],~20000 nM
"O=c1c(-c2ccc(C(F)(F)F)cc2)nc2ccccc2n1Cc1ccccc1 [Compound 1f, 1-Benzyl-3-(4-(trifluoromethyl)phenyl)quinoxalin-2(1H)-one]",EC50,[6]; [8],1000 nM
Fc1ccc2nc3n(Cc4ccccc4)c4ccc(C(F)(F)F)cc4nc-3c2c1 [Compound 22],EC50,[6],> 10000 nM
"O=c1c(-c2ccccc2[N+](=O)[O-])nc2ccccc2n1Cc1ccccc1 [Compound 1d, 1-Benzyl-3-(2-nitrophenyl)quinoxalin-2(1H)-one]",EC50,[6]; [8],1000 nM
"Cn1c(=O)c(-c2cc([N+](=O)[O-])ccc2N)nc2ccccc21 [inactive chemical analog of CFTRact-J027, reference compound]",efficacy on stool parameters of inactive analog,[1]; loperamide-treated wildtype mice,nor was an inactive chemical analog of CFTRact-J027 effective in wildtype mice
"CC(=O)Nc1ccc([N+](=O)[O-])cc1-c1nc2cccc3c2n(c1=O)CCO3 [Compound 16, N-(4-nitro-2-(5-oxo-2,3-dihydro-5H-[1,4]oxazino[4,3,2-de]quinoxalin-6-yl)phenyl) acetamide]",EC50,"[6]; read-out: EC50, constrained ring analogs, plate reader assay",820 nM
